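These data come from cells grown in 96-well plates and exposed to compound for 48 hours at five concentrations. At the GI50, growth is halved.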 Activity calls are given as the source filed them. No stated cut-off is given here; in the data, active = GI50 up to about 1.1 µM and inactive = higher.
Columns and labels:
Assay in all cases: DTP human tumour cell line panel, 48 h
HL-60 = test system: HL-60
HOP-62 = test system: HOP-62
HOP-92 = test system: HOP-92
Hs-578T = test system: Hs-578T
IGROV-1 = test system: IGROV-1
M14 = test system: M14
MDA-MB-231 = test system: MDA-MB-231
NCI-H226 = test system: NCI-H226
NCI-H460 = test system: NCI-H460
OVCAR-3 = test system: OVCAR-3
OVCAR-5 = test system: OVCAR-5
RPMI-8226 = test system: RPMI-8226
SF-295 = test system: SF-295
SF-539 = test system: SF-539
SK-MEL-2 = test system: SK-MEL-2
SR = test system: SR
UACC-257 = test system: UACC-257
UO-31 = test system: UO-31
UACC-62 = test system: UACC-62

Measured: GI50

COc1ccc(C=O)cc1Oc1ccc(C[C@H]2c3c(cc(OC)c4c3Oc3cc5c(cc3O4)CCN(C)C5=O)CCN2C)cc1
inactive: HL-60 8.85 µM | HOP-62 8.32 µM | HOP-92 7.14 µM | Hs-578T 8.04 µM | IGROV-1 7.16 µM | M14 8.65 µM | MDA-MB-231 7.6 µM | NCI-H226 8.59 µM | NCI-H460 9.04 µM | OVCAR-3 8.43 µM | OVCAR-5 12.1 µM | RPMI-8226 5.04 µM | SF-295 7.41 µM | SF-539 8.67 µM | SK-MEL-2 11.5 µM | SR 9.38 µM | UACC-257 8.04 µM | UO-31 7.93 µM

COc1ccc(O)c2c(=O)ccccc12
inactive: HL-60 > 100 µM | HOP-62 > 100 µM | HOP-92 > 100 µM | IGROV-1 > 100 µM | M14 > 100 µM | NCI-H226 46.2 µM | NCI-H460 > 100 µM | OVCAR-3 > 100 µM | OVCAR-5 > 100 µM | RPMI-8226 > 100 µM | SF-295 > 100 µM | SF-539 > 100 µM | SK-MEL-2 > 100 µM | SR > 100 µM | UACC-257 > 100 µM | UACC-62 92.3 µM | UO-31 78.2 µM

COc1cc(O)c2c(c1)O[C@@H]1OCC[C@H]21
inactive: HL-60 > 100 µM | HOP-62 > 100 µM | HOP-92 > 100 µM | IGROV-1 > 100 µM | M14 > 100 µM | NCI-H226 > 100 µM | NCI-H460 > 100 µM | OVCAR-3 > 100 µM | OVCAR-5 > 100 µM | RPMI-8226 > 100 µM | SF-295 > 100 µM | SF-539 > 100 µM | SK-MEL-2 > 100 µM | SR > 100 µM | UACC-257 > 100 µM | UACC-62 > 100 µM | UO-31 > 100 µM

CC(=O)Nc1ccc(C(=O)NN2C(=O)CSC2c2ccc([N+](=O)[O-])cc2)cc1 (centres undefined)
inactive: HOP-62 > 100 µM | HOP-92 > 100 µM | Hs-578T > 100 µM | IGROV-1 > 100 µM | M14 > 100 µM | MDA-MB-231 75.9 µM | NCI-H226 > 100 µM | NCI-H460 > 100 µM | OVCAR-3 > 100 µM | OVCAR-5 > 100 µM | RPMI-8226 > 100 µM | SF-295 > 100 µM | SF-539 > 100 µM | SK-MEL-2 > 100 µM | UACC-257 > 100 µM | UACC-62 > 100 µM | UO-31 > 100 µM

From ChEMBL document CHEMBL1201862, “PubChem BioAssay data set” (2004)
